Data published in the CheMixHub viscosity set.

Assay: xn = mol fraction of the nth substance listed

CCCOC(=O)c1ccccc1 + CC#N
viscosity [mPa·s], 101.33 kPa
Details | x1 = 0.127 | x1 = 0.247 | x1 = 0.362 | x1 = 0.467 | x1 = 0.567 | x1 = 0.658 | x1 = 0.748 | x1 = 0.842 | x1 = 0.928
293.15 K | 0.439 | 0.48 | 0.544 | 0.614 | 0.755 | 0.879 | 1.113 | 1.522 | 2.048
303.15 K | 0.397 | 0.43 | 0.484 | 0.54 | 0.654 | 0.749 | 0.929 | 1.237 | 1.609
313.15 K | 0.362 | 0.386 | 0.431 | 0.479 | 0.57 | 0.652 | 0.786 | 1.025 | 1.307
323.15 K | 0.326 | 0.346 | 0.386 | 0.424 | 0.499 | 0.564 | 0.67 | 0.853 | 1.075

Oc1ccccc1Cl + CCNc1ccccc1
viscosity [mPa·s], 101 kPa
Details | x1 = 0.1027 | x1 = 0.2022 | x1 = 0.3028 | x1 = 0.4011 | x1 = 0.5014 | x1 = 0.6004 | x1 = 0.7024 | x1 = 0.7991 | x1 = 0.8994
298 K | 2.403 | 2.916 | 3.666 | 4.186 | 4.763 | 5.01 | 5.008 | 4.647 | 4.064
303 K | 2.117 | 2.487 | 3.051 | 3.372 | 3.807 | 4.028 | 3.972 | 3.751 | 3.335
308 K | 1.852 | 2.161 | 2.557 | 2.828 | 3.16 | 3.314 | 3.299 | 3.134 | 2.844
313 K | 1.673 | 1.885 | 2.206 | 2.407 | 2.662 | 2.771 | 2.782 | 2.67 | 2.452
318 K | 1.491 | 1.67 | 1.925 | 2.166 | 2.287 | 2.372 | 2.392 | 2.317 | 2.137

[O-][Cl+3]([O-])([O-])O + CC(=O)O
viscosity [mPa·s], 101 kPa
Details | x1 = 0.2029 | x1 = 0.3254 | x1 = 0.4484 | x1 = 0.5117
293.15 K | 0.2653 | 0.6193 | 0.4081 | 0.2388
308.15 K | 0.1146 | 0.2603 | 0.1883 | 0.1226
323.15 K | – | 0.1268 | – | –

CCCN + CCCCCCCCCCO
viscosity [mPa·s], 101.33 kPa
Details | x1 = 0.0915 | x1 = 0.1817 | x1 = 0.283 | x1 = 0.3906 | x1 = 0.4858 | x1 = 0.59 | x1 = 0.718 | x1 = 0.8181 | x1 = 0.9058
303.15 K | 7.465 | 6.249 | 5.036 | 3.906 | 3.037 | 2.211 | 1.384 | 0.8865 | 0.5706
313.15 K | 5.86 | 4.82 | 3.89 | 2.973 | 2.284 | 1.654 | 1.051 | 0.7052 | 0.481

CCCCCCCC(=O)O + ClC(Cl)(Cl)Cl
298.15 K, 101 kPa
Details | viscosity [mPa·s]
x1 = 0.05 | 1.011
x1 = 0.11 | 1.124
x1 = 0.16 | 1.248
x1 = 0.21 | 1.38
x1 = 0.42 | 2.021
x1 = 0.52 | 2.406
x1 = 0.62 | 2.867
x1 = 0.81 | 3.905

CCCCOC(C)=O + CCCCCCCCCCCC
298.15 K, 101.3 kPa
Details | viscosity [mPa·s]
x1 = 0.133 | 1.231
x1 = 0.2982 | 1.09
x1 = 0.4364 | 0.9867
x1 = 0.4791 | 0.9597
x1 = 0.5426 | 0.9188
x1 = 0.683 | 0.8358
x1 = 0.7904 | 0.7782
x1 = 0.8705 | 0.7393
x1 = 0.9238 | 0.7176
x1 = 0.9757 | 0.6938

OCCc1ccccc1 + Cc1ccccc1N
viscosity [mPa·s], 100 kPa
Details | x2 = 0.0857 | x2 = 0.1652 | x2 = 0.2724 | x2 = 0.3731 | x2 = 0.4711 | x2 = 0.6147 | x2 = 0.7123 | x2 = 0.8105 | x2 = 0.8904
303.15 K | 8.539 | 8.086 | 7.473 | 6.895 | 6.332 | 5.503 | 4.937 | 4.366 | 3.9
308.15 K | 7.247 | 6.868 | 6.356 | 5.874 | 5.402 | 4.708 | 4.234 | 3.755 | 3.364
313.15 K | 6.014 | 5.714 | 5.307 | 4.923 | 4.548 | 3.994 | 3.616 | 3.234 | 2.921
318.15 K | 4.751 | 4.532 | 4.234 | 3.952 | 3.676 | 3.269 | 2.991 | 2.708 | 2.476

CCCOC(=O)c1ccccc1 + CCCCCCCCCCCC
101 kPa
Details | viscosity [mPa·s]
298.15 K, x2 = 0.0304 | 2.294
298.15 K, x2 = 0.0721 | 2.175
298.15 K, x2 = 0.1434 | 2.021
298.15 K, x2 = 0.1817 | 1.949
298.15 K, x2 = 0.2145 | 1.892
298.15 K, x2 = 0.3444 | 1.688
298.15 K, x2 = 0.3881 | 1.634
298.15 K, x2 = 0.4343 | 1.583
298.15 K, x2 = 0.4851 | 1.537
298.15 K, x2 = 0.5395 | 1.494
298.15 K, x2 = 0.5883 | 1.458
298.15 K, x2 = 0.6355 | 1.431
298.15 K, x2 = 0.6936 | 1.402
298.15 K, x2 = 0.7544 | 1.38
298.15 K, x2 = 0.8162 | 1.368
298.15 K, x2 = 0.8809 | 1.358
298.15 K, x2 = 0.9435 | 1.354
308.15 K, x2 = 0.0462 | 1.805
308.15 K, x2 = 0.0938 | 1.716
308.15 K, x2 = 0.1234 | 1.663
308.15 K, x2 = 0.1581 | 1.608
308.15 K, x2 = 0.1951 | 1.553
308.15 K, x2 = 0.237 | 1.499
308.15 K, x2 = 0.2799 | 1.449
308.15 K, x2 = 0.3153 | 1.411
308.15 K, x2 = 0.359 | 1.37
308.15 K, x2 = 0.4106 | 1.326
308.15 K, x2 = 0.4473 | 1.299
308.15 K, x2 = 0.4959 | 1.267
308.15 K, x2 = 0.5498 | 1.236
308.15 K, x2 = 0.6007 | 1.21
308.15 K, x2 = 0.6592 | 1.191
308.15 K, x2 = 0.7183 | 1.172
308.15 K, x2 = 0.7624 | 1.163
308.15 K, x2 = 0.8324 | 1.153
308.15 K, x2 = 0.9146 | 1.146
318.15 K, x2 = 0.026 | 1.532
318.15 K, x2 = 0.0634 | 1.473
318.15 K, x2 = 0.0967 | 1.423
318.15 K, x2 = 0.1355 | 1.371
318.15 K, x2 = 0.1705 | 1.328
318.15 K, x2 = 0.2119 | 1.28
318.15 K, x2 = 0.2499 | 1.242
318.15 K, x2 = 0.2955 | 1.201
318.15 K, x2 = 0.3358 | 1.168
318.15 K, x2 = 0.4031 | 1.12
318.15 K, x2 = 0.4279 | 1.105
318.15 K, x2 = 0.48 | 1.077
318.15 K, x2 = 0.5272 | 1.055
318.15 K, x2 = 0.5827 | 1.033
318.15 K, x2 = 0.6342 | 1.015
318.15 K, x2 = 0.6953 | 0.997
318.15 K, x2 = 0.7509 | 0.985
318.15 K, x2 = 0.8169 | 0.975
318.15 K, x2 = 0.8761 | 0.968
